The source of these data is US10844349B2 (Albumedix Ltd., priority 2011, dated 2020).

The nature of series [1]: Microtitre plate insoluble aggregate test: time for A350 to increase by 0.2 AU at 65° C. The class given is physicochemical. Particulars: cation chlorides 50-500 mM, albumin 10 mg/mL, pH 6.43, 65° C. The method, then: The microtitre plate was gently rocked to mix the contents of each well, centrifuged to remove any air bubbles and placed in a Biotek Synergy Mx (Potton, UK) plate reader that had been pre-equilibrated and controlled at 65° C. The plate was then read at 350 nm every minute over a total incubation time of 8 hours. Gen5 software (Biotek software for the plate reader version 2.00.18) was used to calculate the time taken for the A350 nm absorbance to increase by 0.2 adsorption units above a base line. The base line was calculated from the mean of the first 5 data points.

For series [2], the system named is Human embryonic stem cells (cell lines SAl21 and SA181). Nature of the series: Effect of octanoate on stem cell culture (attachment, growth, undifferentiated state over 5 passages; text summary for both cell lines). The class given is cell-based. The settings on record: 8 mM octanoate in 100 g/L albumin. How it is done:
The effect of octanoate on stem cell culture was carried out by a contract research organization: Cellartis AB (Gothenburg, Sweden). […] The cell growth over the 5 passages was assessed by monitoring the cell doubling times during consecutive passages in cell production. The doubling times of cultures should be within a range of 28-40 hours, and can be seen as a trend indicator.

SMILES strings stand for the structures.

Turning to `[Cl-].[Cl-].[Mg+2]` [MgCl2], the “albumin stability (time for A350 to increase by 0.2 AU)” value in series [1] is on record as “very good”.

Take `CCCCCCCC(=O)O` [octanoate]: the “toxicity to stem cells” value in series [2] is given as “toxic to stem cells”.
